The results in this text go back to US9150544B2 (priority 2011, dated 2015).

The assay deals with human factor IXa (Homo sapiens (Human), UniProt P00740). The experiment in a line: biochemical. As to conditions: read-out: Imax IXa (percentage inhibition at the maximum concentration tested).

Structures are written as SMILES.

Sequence of human factor IXa (P00740 whole entry, looked up): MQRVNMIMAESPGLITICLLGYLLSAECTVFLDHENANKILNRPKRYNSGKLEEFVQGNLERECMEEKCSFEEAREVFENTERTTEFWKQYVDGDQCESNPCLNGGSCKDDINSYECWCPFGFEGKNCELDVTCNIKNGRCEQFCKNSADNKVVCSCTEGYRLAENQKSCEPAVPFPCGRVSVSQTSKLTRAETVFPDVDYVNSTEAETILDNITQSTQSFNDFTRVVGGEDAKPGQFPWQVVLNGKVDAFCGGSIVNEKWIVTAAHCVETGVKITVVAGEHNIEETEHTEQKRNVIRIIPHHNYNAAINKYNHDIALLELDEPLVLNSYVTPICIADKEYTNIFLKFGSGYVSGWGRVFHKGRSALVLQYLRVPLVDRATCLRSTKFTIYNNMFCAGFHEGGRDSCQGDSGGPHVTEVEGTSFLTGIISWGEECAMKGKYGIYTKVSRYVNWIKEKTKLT
Sequence of human factor IXa (P00740 whole entry partner, looked up): as the sequence (P00740 whole entry, looked up) above

For the compound `COC(=O)[C@@H](Cc1cc2ccnc(N)c2cc1C(F)(F)F)N1CC[C@H](NS(=O)(=O)c2cnc(N3CCC(F)(F)C3)s2)C1=O` [Compound 90, (R)-3-(1-Amino-7-trifluoromethyl-isoquinolin-6-yl)-2-{(S)-3-[2-(3,3-difluoro-pyrrolidin-1-yl)-thiazole-5-sulfonylamino]-2-oxo-pyrrolidin-1-yl}-propionic acid methyl ester], the inhibition at 5 µM was 41%.
